# Results published in ChEMBL document CHEMBL1141048, “5-Substituted 4-anilinoquinazolines as potent, selective and orally active inhibitors of erbB2 receptor tyrosine kinase” (Bioorg Med Chem Lett, 2005).
# Experiments:
# [1] = molecular target: Epidermal growth factor receptor (Homo sapiens, UniProt P00533); assay: Inhibitory concentration against EGFR kinase phosphorylation using synthetic peptide as a substrate
# [2] = molecular target: T1, Receptor tyrosine-protein kinase erbB-2 (Homo sapiens, UniProt P04626); assay: Inhibitory concentration against erbB2 kinase phosphorylation using synthetic peptide as a substrate
# BT-474 = assay: Inhibitory concentration of compound against BT474C using standard MTT colorimetric endpoint; details: Homo sapiens
# [3] = molecular target: T1, Receptor tyrosine-protein kinase erbB-2; assay: Inhibitory concentration against erbB2 autophosphorylation in MCF-7 breast carcinoma cell line; assay type: functional, cell-based, MCF7
# KB [4] = assay: Inhibitory concentration of compound against KB Basal; details: Homo sapiens
# KB [5] = assay: Inhibitory concentration of compound against KB using a sandwich ELISA; details: Homo sapiens
# [6] = Steady state volume of Distribution of compound in Mice after administration of 5 mg/kg through peroral route; assay type: ADME, organism-based; set-up: dose 5 mg/kg, route oral; details: mouse, in vivo, po
# [7] = Clearance of compound in Mice after administration of 5 mg/kg through peroral route; assay type: ADME, organism-based; set-up: dose 5 mg/kg, route oral; details: mouse, in vivo, po
# [8] = AUC in Mice after administration of 5 mg/kg through peroral route; assay type: ADME, organism-based; set-up: dose 5 mg/kg, route oral; details: mouse, plasma, po
# [9] = Plasma concentration of compound after 2 hours of administration of 100 mg/kg through peroral route; details: mouse, po
# [10] = Plasma concentration of compound after 4 hours of administration of 100 mg/kg through peroral route; details: mouse, po
# [11] = AUC in Mice after administration of 5 mg/kg through oral route; details: mouse, plasma
# [12] = Bioavailability of compound in Mice after administration of 2 mg/kg through intra venous route; assay type: ADME, organism-based; details: mouse, in vivo, intravenous, read-out: Bioavailabiility
# [13] = Plasma concentration of compound after 16 hours of administration of 100 mg/kg through peroral route; details: mouse, po
# [14] = Plasma concentration of compound after 6 hours of administration of 100 mg/kg through peroral route; details: mouse, po
# [15] = Clearance of compound in Mice after administration of 2 mg/kg through intra venous route; assay type: ADME, organism-based; set-up: dose 2 mg/kg; details: mouse, in vivo, iv
# [16] = Plasma concentration of compound after 24 hours of administration of 100 mg/kg through peroral route; details: mouse, po
# [17] = Bioavailability of compound in Mice after administration of 5 mg/kg through peroral route; assay type: ADME, organism-based; details: mouse, in vivo, po, read-out: Bioavailabiility
# [18] = Steady state volume of Distribution of compound in Mice after administration of 2 mg/kg through intra venous route; assay type: ADME, organism-based; set-up: dose 2 mg/kg; details: mouse, in vivo, iv, read-out: Vdss
# T1 sequence (P04626 whole entry): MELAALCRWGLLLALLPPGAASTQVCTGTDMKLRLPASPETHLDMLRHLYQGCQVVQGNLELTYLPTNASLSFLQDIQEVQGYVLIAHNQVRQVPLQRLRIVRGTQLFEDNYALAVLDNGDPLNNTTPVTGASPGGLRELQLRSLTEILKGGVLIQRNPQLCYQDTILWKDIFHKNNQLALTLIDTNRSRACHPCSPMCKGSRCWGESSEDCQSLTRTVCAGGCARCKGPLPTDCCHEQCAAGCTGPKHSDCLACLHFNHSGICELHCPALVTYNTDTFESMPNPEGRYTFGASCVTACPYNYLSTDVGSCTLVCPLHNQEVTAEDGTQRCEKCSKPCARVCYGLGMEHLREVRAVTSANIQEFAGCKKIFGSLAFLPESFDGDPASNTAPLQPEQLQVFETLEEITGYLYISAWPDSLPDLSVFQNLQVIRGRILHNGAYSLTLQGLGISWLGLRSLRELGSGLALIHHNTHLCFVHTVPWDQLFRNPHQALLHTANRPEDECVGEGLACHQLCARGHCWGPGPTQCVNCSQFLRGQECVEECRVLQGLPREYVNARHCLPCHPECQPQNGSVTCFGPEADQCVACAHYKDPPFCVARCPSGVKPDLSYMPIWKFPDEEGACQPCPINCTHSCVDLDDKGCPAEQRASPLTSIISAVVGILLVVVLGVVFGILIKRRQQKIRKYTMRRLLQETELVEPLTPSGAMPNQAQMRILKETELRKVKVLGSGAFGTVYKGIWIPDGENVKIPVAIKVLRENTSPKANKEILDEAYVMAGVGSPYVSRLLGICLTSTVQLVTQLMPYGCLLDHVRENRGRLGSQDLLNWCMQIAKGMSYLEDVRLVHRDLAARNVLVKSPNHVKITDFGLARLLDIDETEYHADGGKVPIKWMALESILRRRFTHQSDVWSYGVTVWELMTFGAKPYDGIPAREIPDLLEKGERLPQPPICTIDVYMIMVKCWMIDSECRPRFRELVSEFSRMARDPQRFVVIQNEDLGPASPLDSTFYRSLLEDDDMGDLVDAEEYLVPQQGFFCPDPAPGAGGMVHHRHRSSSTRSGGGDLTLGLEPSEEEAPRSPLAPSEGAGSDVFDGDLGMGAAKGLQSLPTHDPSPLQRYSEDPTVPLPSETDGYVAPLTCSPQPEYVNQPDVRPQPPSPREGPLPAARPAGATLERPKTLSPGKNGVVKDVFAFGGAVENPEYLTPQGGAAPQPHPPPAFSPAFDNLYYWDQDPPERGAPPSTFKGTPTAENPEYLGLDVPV
# Sequence of Epidermal growth factor receptor (P00533 whole entry): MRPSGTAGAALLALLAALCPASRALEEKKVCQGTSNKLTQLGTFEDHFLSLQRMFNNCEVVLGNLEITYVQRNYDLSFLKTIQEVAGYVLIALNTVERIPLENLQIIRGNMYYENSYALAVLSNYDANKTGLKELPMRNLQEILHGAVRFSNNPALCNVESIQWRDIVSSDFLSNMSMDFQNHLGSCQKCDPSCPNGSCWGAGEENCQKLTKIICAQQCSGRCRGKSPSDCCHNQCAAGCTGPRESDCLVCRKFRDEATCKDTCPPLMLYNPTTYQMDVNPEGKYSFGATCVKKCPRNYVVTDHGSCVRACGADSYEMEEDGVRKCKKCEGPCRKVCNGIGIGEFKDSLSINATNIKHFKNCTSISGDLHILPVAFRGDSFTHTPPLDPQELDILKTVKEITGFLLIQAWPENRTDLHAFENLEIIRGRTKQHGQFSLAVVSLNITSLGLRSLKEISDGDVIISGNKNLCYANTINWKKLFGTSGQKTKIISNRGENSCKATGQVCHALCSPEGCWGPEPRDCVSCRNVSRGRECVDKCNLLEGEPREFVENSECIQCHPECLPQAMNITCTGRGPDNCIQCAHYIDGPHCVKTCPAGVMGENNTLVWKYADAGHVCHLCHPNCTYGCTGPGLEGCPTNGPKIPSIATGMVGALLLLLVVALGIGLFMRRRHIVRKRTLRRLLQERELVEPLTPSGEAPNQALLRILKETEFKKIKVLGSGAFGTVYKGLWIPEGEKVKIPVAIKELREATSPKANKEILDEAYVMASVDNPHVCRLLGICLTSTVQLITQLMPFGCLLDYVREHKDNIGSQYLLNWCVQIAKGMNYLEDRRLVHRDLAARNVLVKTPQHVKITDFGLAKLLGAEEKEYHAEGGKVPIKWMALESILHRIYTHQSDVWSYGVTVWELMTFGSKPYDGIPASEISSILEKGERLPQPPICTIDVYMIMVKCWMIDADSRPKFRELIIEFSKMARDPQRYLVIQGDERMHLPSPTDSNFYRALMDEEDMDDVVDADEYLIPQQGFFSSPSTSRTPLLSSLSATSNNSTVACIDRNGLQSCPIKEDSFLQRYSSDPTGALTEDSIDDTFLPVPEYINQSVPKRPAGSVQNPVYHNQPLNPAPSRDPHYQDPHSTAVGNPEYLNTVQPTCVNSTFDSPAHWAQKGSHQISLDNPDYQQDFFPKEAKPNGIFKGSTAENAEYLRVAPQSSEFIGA
smiles,measurement,setting,value
CN1CCC(Oc2cccc3ncnc(Nc4ccc(OCc5ccccn5)cc4)c23)CC1,IC50,[1],2100 nM
same,IC50,[2],70 nM
CN1CCC(Oc2cccc3ncnc(Nc4ccc(OCc5cnccn5)c(Cl)c4)c23)CC1,IC50,[1],690 nM
same,IC50,[2],< 2 nM
COc1ccc(Nc2ncnc3cccc(OC4CCN(C)CC4)c23)cc1Cl,IC50,[1],1800 nM
same,IC50,[2],1100 nM
COc1cccc2ncnc(Nc3ccc(OCc4ccccn4)c(Cl)c3)c12,IC50,[1],440 nM
same,IC50,[2],24 nM
COc1cc2ncnc(Nc3ccc(OCc4ccccn4)c(C)c3)c2cc1OC,IC50,[1],59 nM
same,IC50,[2],56 nM
CN1CCC(Oc2cccc3ncnc(Nc4ccc(OCc5cccc(F)c5)c(Cl)c4)c23)CC1,IC50,[1],5 nM
same,IC50,[2],< 2 nM
same,IC50,BT-474,2.7 nM
same,IC50,[3],56 nM
same,IC50,KB [4],1700 nM
same,IC50,KB [5],460 nM
CN1CCC(Oc2cccc3ncnc(Nc4ccc(OCc5ccccn5)c(Cl)c4)c23)CC1,IC50,[1],140 nM
same,Vdss,[6],2.6 L/kg
same,CL/F,[7],15 mL/min/kg
same,AUC,[8],5.5 µM·h
same,concentration at 2 h,[9],9.2 µM
same,IC50,[2],< 2 nM
same,concentration at 4 h,[10],7.2 µM
same,AUC,[11],5.5 µM·h
same,IC50,BT-474,41 nM
same,bioavailability,[12],50%
same,IC50,[3],61 nM
same,concentration at 16 h,[13],2.2 µM
same,concentration at 6 h,[14],6.9 µM
same,IC50,KB [4],11900 nM
same,IC50,KB [5],2600 nM
same,clearance,[15],15 mL/min/kg
same,concentration at 24 h,[16],1.1 µM
same,bioavailability,[17],50%
same,Vd,[18],2.6 L/kg
CN1CCC(Oc2cccc3ncnc(Nc4ccc(OCc5cscn5)c(Cl)c4)c23)CC1,IC50,[1],698 nM
same,IC50,[2],< 2 nM
Clc1cc(Nc2ncnc3cccc(OC4CCOCC4)c23)ccc1OCc1ccccn1,IC50,[1],2400 nM
same,IC50,[2],24 nM
